This is an account of results in patent US20160237158A1, “Methods and Compositions for Targeting Tumor Microenvironment and for preventing Metastasis” (INSTITUT NATIONAL DE LA SANTÉ ET DA LA RECHERCHE MÉDICALE …, priority 2013, published 2016).

The subject of one experiment is SCC12 cells. In words: Organotypic invasion assay. It counts as cell-based, human. Here is the method: In this assay, hDF or CAFs were cultured during one week in serum-free medium (with either vehicle or cytokines) or CM before embedding in matrix gel. 5×10^5 fibroblasts were embedded in a 1 ml mixture of collagen I and Matrigel18. After the gel was set at 37° C. for 1 h, 5×10^5 SCC12 were plated on top of the gel in complete media. The next day, the gel was lifted onto individual collagen coated nylon discs resting on metal bridges and fed from underneath with daily changes of complete media (with either vehicle or inhibitors), allowing the epithelial layer to grow at an air-liquid interface.
After 5 days, cultures were fixed (4% paraformaldehyde+0.25% glutaraldehyde in PBS) and processed for haematoxylin and eosin (H&E) staining by standard methods. Invasion assay was measuring the total area of SCC cells and the area of non-invading SCC cells using imageJ software (http://rsbweb.nih.gov/ij/). The value of invasion index shown is the average 1−(non-invading area/total area) of at least ten fields from three or more independent experiments. Error bars are the standard deviation.

For another experiment, the system named is STAT3. In words: STAT3 phosphorylation in fibroblasts (western blot). It counts as cell-based, human. An excerpt:
For western blot analysis, antibodies against STAT3 (#9134), pY705-STAT3 (#9145), SMAD2 (#3122), pSer465/467-SMAD2 (#3108), pY1022/1023-JAK1 (#3331), MLC2 (#3672), pThr18/19-MLC2 (#3674) were purchased from Cell Signaling (Cell Signaling Technology, Beverly Mass.), α-tubulin from sigma (T4026, Sigma, Saint Louis, Mo.); JAK1 from Biolegend (#604402, Biolegend, San Diego, Calif.), GP-130 (#sc-655) and RhoA (#sc-418, Santa Cruz Biotechnology, Santa Cruz, Calif.), and alpha-smooth muscle actin (α-SMA) from Abcam (#Ab5694, Abcam, Cambridge, Mass.). For immunofluorescence staining, antibodies against α-SMA and fibronectin were purchased from Sigma (#A2547 and F3648 respectively, Sigma, Saint Louis, Mo.). Chemical inhibitors used: Pyridone 6 (#42009, Calbiochem, Los Angeles, Calif.) was used at […], SB431542 (#1614, Tocris bioscience, Ellisville, Mo.) at 10 μM, Y27632 (#1254, Tocris bioscience, Ellisville, Mo.) and Actinomycin D (#856258, Sigma, Saint Louis, USA) at 5 μg/ml.
(§1) For immunoblotting analysis, cells were lysed on ice in lysis buffer (25 mM Tris (pH 6.8), 2% Sodium dodecyl sulfate (SDS), 5% glycerol, 1% beta-mercaptoethanol, 0.01% bromophenol blue). Equal amounts of protein from each sample were loaded on sodium dodecyl sulfate-polyacrylamide gel electrophoresis, separated, and transferred onto nitrocellulose. The immunoblots were blocked by incubation in 5% bovine serum albumin, 10 mM Tris-HCl (ph7.5), 500 mM NaCl, 0.1% Tween 20 for 30 min at room temperature, probed with specific antibodies and then with secondary antibodies using common classical methods. Immunodetection was performed using chemiluminescent HRP subtrate (#WBKLS0500, Millipore, Billerica, Mass.).
(In general: A western blot detects proteins with antibodies after separation by electrophoresis.)

The subject of another experiment is 410.4 cells. In words: Orthotopic tumours in BALB/c mice. Format: in vivo, mouse. The following applies: 21-day oral gavage, 30 mg/kg/day. Here is the method: (§2) After embedding in paraffin, tissue sections from organotypic culture, skin from human breast and foreskin, and human skin carcinomas were prepared on slides using standard methods. Collagen assembly was evaluated by Sirius Red staining. Briefly, sections were first incubated with Weigert's iron hematoxylin (#C0231, Diapath, Martinengo, Italy) for 8 minutes and washed in distilled water for 10 minutes. Sections were next incubated with 1% Sirius Red in saturated picric acid for 1 hour. The slides were then washed twice with 0.5% acetic acid in distilled H2O, dehydrated and mounted using classical procedures. Sections were analysed using polarized light imaging and confocal laser microscopy with a LSM 5 EXCITER confocal microscope (Carl Zeiss, Germany). Collagen fibres thickness and length were quantified using ImageJ software.
6-8 weeks old female BALB/c mice were anesthetized using ketamine and xelazine by peritoneal injection. Skin was incised and 5.10^3 67NR or 410.4 cells (5.10^3) were injected into the right and left 4th mammary fat pad in 10 μl of PBS for each mouse. 67NR group consisted of 2 mice (4 primary tumours), 410.^4 group consisted of 7 mice (14 tumours) and 410.4 with additional treatment of Ruxolitinib (30 mg/kg/day) group consisted of 5 mice (10 tumours). Mice were sacrificed 30 days post-injection and Ruxolitinib treatment started 7 days after injection, primary tumours were removed and fixed in PBS containing 3.7% formalin for 8 hours, followed by was with PBS and transfer to 70% ethanol, and then embedded in paraffin, sectioned and stained with haematoxylin and eosin. Immunohistochemistry detection using anti-LIF, anti-p-STAT3 and anti-alpha-SMA antibodies was performed on paraffin sections following manufactures instructions.

A further experiment deals with mouse dermal fibroblasts. In words: TGFβ1-stimulated mouse dermal fibroblasts: STAT3 phosphorylation and collagen gel contraction. It counts as cell-based. Here is the method: 2.5×10^4 Fibroblasts were embedded in 100 μl of matrix gel (the Collagen-Matrigel mixture used for organotypic invasion assays) and plated into wells of a 96 well plate^57. After 1 h at 37° C., the matrices were overlaid with 100 μl serum-free medium (with either vehicle, cytokines or inhibitors) or CM. Every 2 days, medium was changed and at day 6 the gels were photographed and the respective diameters of the well and gel were measured using ImageJ. The percentage contraction was calculated using the formula 100*(well diameter−gel diameter)/well diameter.
as §1

Another experiment relates to hDF. As to the kind of experiment: Collagen fibre assembly in 3D-organotypic cultures (Sirius Red). It counts as cell-based, human. The following applies: hDF stimulated by either TGFβ1 or LIF. Here is the method: as §2
[1] abbreviates: mice implanted with 401.4 cells.

For `N#CCC(C1CCCC1)n1cc(-c2ncnc3[nH]ccc23)cn1` (stereo not drawn) [Ruxolitinib, 3-Cyclopentyl-3-[4-(7H-pyrrolo[2,3-d]pyrimidin-4-yl)-1H-pyrazol-1-yl]propanenitrile], in the experiment with SCC12 cells (hCAF), the “track formation and SCC12 cell invasion promoted by hCAF” value is “prevented”. The “pro-invasive hDF activation induced upon TGFβ1 and LIF stimulation” value with SCC12 cells (hDF, TGFβ1 and LIF stimulation) is listed as “abrogated”. In the experiment on STAT3 (TGFβ1- or LIF-stimulated fibroblasts), the STAT3 phosphorylation entry is recorded as “repressing”. Further, the “CAF endogenous STAT3 activity” value in the experiment with STAT3 (hCAF) is recorded as “inhibition”. In the experiment with 410.4 cells (setting [1]), the “STAT3 phosphorylation within the tumour microenvironment in vivo” value is recorded as “inhibited” and the αSMA staining entry was “without influencing”. For the same compound, the “rates of invasion of the tumour cells” value with 410.4 cells (mice implanted with 401.4 cells, FIG. 4B) was “significant reduced”. Besides, the “Sirius Red staining and formation of collagen bundles” value with 410.4 cells (mice implanted with 401.4 cells, FIG. 4C) is on record as “reduced”. In addition, the LIF production entry with 410.4 cells (mice implanted with 410.4 cells) was “without influencing”. Moreover, in the experiment with mouse dermal fibroblasts, the STAT3 phosphorylation entry is on record as “complete abrogation” and the matrix remodelling entry is given as “complete abrogation”. Further, the “capacity to assembly polarized collagen fibres” value in the experiment on hDF was “inhibited”.
